# From PubChem BioAssay (NCI)
#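 Test compounds were applied to cells in 96-well plates for 48 hours at 5 doses. TGI: total growth inhibition.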
# Columns and labels:
# Assay in all cases: NCI anticancer screen, dose series, 48 h
# NCI-H460 lung = tested on: NCI-H460 lung
# OVCAR-4 ovarian = tested on: OVCAR-4 ovarian
# PC-3 prostate = tested on: PC-3 prostate
# NCI-H23 lung = tested on: NCI-H23 lung
# SK-OV-3 ovarian = tested on: SK-OV-3 ovarian
# UO-31 renal = tested on: UO-31 renal
# SF-268 CNS = tested on: SF-268 CNS
# ACHN renal = tested on: ACHN renal
# SN12C renal = tested on: SN12C renal
# SW-620 colon = tested on: SW-620 colon
# OVCAR-3 ovarian = tested on: OVCAR-3 ovarian
# HCT-116 colon = tested on: HCT-116 colon
# SNB-19 CNS = tested on: SNB-19 CNS
# OVCAR-5 ovarian = tested on: OVCAR-5 ovarian
# U251 CNS = tested on: U251 CNS
# LOX IMVI melanoma = tested on: LOX IMVI melanoma
# UACC-62 melanoma = tested on: UACC-62 melanoma
# HL-60(TB) leukemia = tested on: HL-60(TB) leukemia
# HT29 colon = tested on: HT29 colon
# IGROV1 ovarian = tested on: IGROV1 ovarian
# HCC-2998 colon = tested on: HCC-2998 colon
# SF-295 CNS = tested on: SF-295 CNS
# TK-10 renal = tested on: TK-10 renal
# NCI/ADR-RES ovarian = tested on: NCI/ADR-RES ovarian
# T-47D breast = tested on: T-47D breast
# NCI-H522 lung = tested on: NCI-H522 lung
# COLO 205 colon = tested on: COLO 205 colon
# A549 NSCLC = tested on: A549 NSCLC
# UACC-257 melanoma = tested on: UACC-257 melanoma
# MALME-3M melanoma = tested on: MALME-3M melanoma
# CCRF-CEM leukemia = tested on: CCRF-CEM leukemia
# HS 578T breast = tested on: HS 578T breast
# EKVX NSCLC = tested on: EKVX NSCLC
# HOP-62 NSCLC = tested on: HOP-62 NSCLC
# HCT-15 colon = tested on: HCT-15 colon
# OVCAR-8 ovarian = tested on: OVCAR-8 ovarian
# MDA-MB-231 breast = tested on: MDA-MB-231 breast
# 786-0 renal = tested on: 786-0 renal
# K-562 leukemia = tested on: K-562 leukemia
# SF-539 CNS = tested on: SF-539 CNS
# SR leukemia = tested on: SR leukemia
# NCI-H226 lung = tested on: NCI-H226 lung
# SK-MEL-28 melanoma = tested on: SK-MEL-28 melanoma
# MDA-MB-435 = tested on: MDA-MB-435
# MDA-N = tested on: MDA-N
# KM12 colon = tested on: KM12 colon
# SNB-75 CNS = tested on: SNB-75 CNS
# M14 melanoma = tested on: M14 melanoma
# CAKI-1 renal = tested on: CAKI-1 renal
# MCF7 breast = tested on: MCF7 breast
# SK-MEL-2 melanoma = tested on: SK-MEL-2 melanoma
# RPMI-8226 leukemia = tested on: RPMI-8226 leukemia
# A498 renal = tested on: A498 renal
# MOLT-4 leukemia = tested on: MOLT-4 leukemia
# BT-549 breast = tested on: BT-549 breast
# HOP-92 NSCLC = tested on: HOP-92 NSCLC
# SK-MEL-5 melanoma = tested on: SK-MEL-5 melanoma
# RXF 393 renal = tested on: RXF 393 renal
structure (smiles),measurement,setting,value
COC(=O)c1ccc(C)cc1CC1Cc2cc(C)ccc2C1=O (stereo unspecified),TGI,NCI-H460 lung,> 100 µM
same,TGI,OVCAR-4 ovarian,> 100 µM
same,TGI,PC-3 prostate,> 100 µM
same,TGI,NCI-H23 lung,> 100 µM
same,TGI,SK-OV-3 ovarian,> 100 µM
same,TGI,UO-31 renal,> 100 µM
same,TGI,SF-268 CNS,> 100 µM
same,TGI,ACHN renal,> 100 µM
same,TGI,SN12C renal,> 100 µM
same,TGI,SW-620 colon,> 100 µM
same,TGI,OVCAR-3 ovarian,> 100 µM
same,TGI,HCT-116 colon,> 100 µM
same,TGI,SNB-19 CNS,> 100 µM
same,TGI,OVCAR-5 ovarian,> 100 µM
same,TGI,U251 CNS,> 100 µM
same,TGI,LOX IMVI melanoma,> 100 µM
same,TGI,UACC-62 melanoma,> 100 µM
same,TGI,HL-60(TB) leukemia,> 100 µM
same,TGI,HT29 colon,> 100 µM
same,TGI,IGROV1 ovarian,> 100 µM
same,TGI,HCC-2998 colon,> 100 µM
same,TGI,SF-295 CNS,> 100 µM
same,TGI,TK-10 renal,> 100 µM
same,TGI,NCI/ADR-RES ovarian,> 100 µM
same,TGI,T-47D breast,> 100 µM
same,TGI,NCI-H522 lung,> 100 µM
same,TGI,COLO 205 colon,> 100 µM
same,TGI,A549 NSCLC,> 100 µM
same,TGI,UACC-257 melanoma,> 100 µM
same,TGI,MALME-3M melanoma,> 100 µM
same,TGI,CCRF-CEM leukemia,> 100 µM
same,TGI,HS 578T breast,> 100 µM
same,TGI,EKVX NSCLC,> 100 µM
same,TGI,HOP-62 NSCLC,> 100 µM
same,TGI,HCT-15 colon,> 100 µM
same,TGI,OVCAR-8 ovarian,> 100 µM
same,TGI,MDA-MB-231 breast,> 100 µM
same,TGI,786-0 renal,> 100 µM
same,TGI,K-562 leukemia,> 100 µM
same,TGI,SF-539 CNS,> 100 µM
same,TGI,SR leukemia,> 100 µM
same,TGI,NCI-H226 lung,> 100 µM
same,TGI,SK-MEL-28 melanoma,> 100 µM
same,TGI,MDA-MB-435,> 100 µM
same,TGI,MDA-N,> 100 µM
same,TGI,KM12 colon,> 100 µM
same,TGI,SNB-75 CNS,> 100 µM
same,TGI,M14 melanoma,> 100 µM
same,TGI,CAKI-1 renal,> 100 µM
same,TGI,MCF7 breast,> 100 µM
same,TGI,SK-MEL-2 melanoma,> 100 µM
same,TGI,RPMI-8226 leukemia,> 100 µM
same,TGI,A498 renal,> 100 µM
same,TGI,MOLT-4 leukemia,> 100 µM
same,TGI,BT-549 breast,> 100 µM
O=C(O)c1nc2cc(C(F)(F)F)ccc2nc1Nc1ccc(F)cc1,TGI,HOP-92 NSCLC,39.3 µM
same,TGI,PC-3 prostate,31.6 µM
same,TGI,NCI-H23 lung,38.2 µM
same,TGI,SK-OV-3 ovarian,> 100 µM
same,TGI,UO-31 renal,35.8 µM
same,TGI,SF-268 CNS,> 100 µM
same,TGI,ACHN renal,35.2 µM
same,TGI,SW-620 colon,68.8 µM
same,TGI,OVCAR-3 ovarian,49.8 µM
same,TGI,HCT-116 colon,48.4 µM
same,TGI,SNB-19 CNS,> 100 µM
same,TGI,OVCAR-5 ovarian,93.5 µM
same,TGI,U251 CNS,59.5 µM
same,TGI,LOX IMVI melanoma,48.5 µM
same,TGI,UACC-62 melanoma,31.1 µM
same,TGI,HT29 colon,> 100 µM
same,TGI,IGROV1 ovarian,55.9 µM
same,TGI,SF-295 CNS,58.4 µM
same,TGI,TK-10 renal,> 100 µM
same,TGI,NCI/ADR-RES ovarian,> 100 µM
same,TGI,T-47D breast,> 100 µM
same,TGI,NCI-H522 lung,75.4 µM
same,TGI,COLO 205 colon,37.1 µM
same,TGI,A549 NSCLC,> 100 µM
same,TGI,UACC-257 melanoma,60.2 µM
same,TGI,MALME-3M melanoma,50.9 µM
same,TGI,CCRF-CEM leukemia,> 100 µM
same,TGI,HS 578T breast,74.3 µM
same,TGI,EKVX NSCLC,89.6 µM
same,TGI,SK-MEL-5 melanoma,48.1 µM
same,TGI,OVCAR-8 ovarian,81.7 µM
same,TGI,RXF 393 renal,36 µM
same,TGI,MDA-MB-231 breast,70.8 µM
same,TGI,786-0 renal,66 µM
same,TGI,K-562 leukemia,> 100 µM
same,TGI,SF-539 CNS,32.4 µM
same,TGI,SR leukemia,55 µM
same,TGI,NCI-H226 lung,> 100 µM
same,TGI,SK-MEL-28 melanoma,> 100 µM
same,TGI,MDA-MB-435,> 100 µM
same,TGI,MDA-N,91 µM
same,TGI,KM12 colon,30.3 µM
same,TGI,SNB-75 CNS,49.5 µM
same,TGI,M14 melanoma,82.4 µM
same,TGI,CAKI-1 renal,74.7 µM
same,TGI,MCF7 breast,72.9 µM
same,TGI,SK-MEL-2 melanoma,26.5 µM
same,TGI,RPMI-8226 leukemia,> 100 µM
same,TGI,A498 renal,47.7 µM
same,TGI,MOLT-4 leukemia,59.8 µM
same,TGI,BT-549 breast,46.9 µM
